Tests used:
[1] = system: HT1080 (human fibrosarcoma); assay: Cell cytotoxicity CellTiter-Glo, HT1080; format: cell-based; conditions: HT-1080
Method: (§1) Cells were seeded in 96-well microplates and treated with compounds or cisplatin (as a positive control) at 9 increasing concentrations in technical triplicate. […] On day 1, 90 μL of various cell suspensions with the number of cells ranging from 5000-8000 cells/well were seeded into wells of a 96-well plate (Corning). The number of cells to be seeded was previously determined. • 2. All 96-wells plates with cells were placed in an incubator overnight at 37° C. with 5% CO2. • 3. On day 2, cells were observed under a microscope ensuring the cells treated with vehicle control were in good condition. • 4. A dilution series of the test compounds and cisplatin were prepared at 10× the final concentrations required. 10 μL/well of 10× compound solution was added to the corresponding plates. The final volume was 100 μL/well for all the plates. Final DMSO concentration was 0.1%. • 5. On day 5 (after 72 hours of incubation), 50 μL of CTG reagent was added to each well. • 6. Contents were mixed for 5 minutes on an orbital shaker to facilitate cell lysis. • 7. The plate was allowed to incubate at room temperature for 10 minutes to stabilize luminescent signals. […]

rat hepatocytes = assay: Hepatocyte metabolic stability, rat; format: in vitro ADME
Method: (§2) Biological Example 6: Rat hepatocyte half life Certain Example compounds and Comparator Compound 1 were tested for metabolic stability in a metabolic assay using mouse- and rat-derived hepatocytes. Compounds having good metabolic stability in the assay are expected to be especially useful as agents for preventing and/or treating cancer, by having a long half-life in human patients.
(§3) Frozen pooled rat and mouse hepatocytes obtained from LifeTechnologies were thawed and purified according to the manufacturer's instructions. The test compound (4 mM) in DMSO was diluted with acetonitrile to provide a 100 μM sub-stock then further diluted with pH 7.4 Krebs-Henseleit buffer (supplemented with CaCl2, NaHCO3, HEPES, fructose and glycine) to provide a 2 μM working solution. 25 μL of working solution was incubated at 37° C., treated with 25 μL of rat or mouse hepatocyte suspension (containing 1×10^6 cells/mL) and incubated at 37° C. with 5% CO2 level at 95% relative humidity. Wells were incubated for an appropriate time (0, 15, 30, 45, 60 and 75 min) then quenched with 250 μL of acetonitrile containing reference standards diltiazem, 7-ethoxycoumarin and propranolol). The plates were shaken, sonicated for 5 min then cooled to 4° C. until all sampling was complete. All plates were centrifuged at 4000 rpm for 20 min to pellet the debris. 110 μL supernatant was diluted 110 μL water and quantitated using LC-MS/MS.
(§4) A linear regression curve was fitted to a plot of natural logarithm (In) of AUC against time. The T-half (min)=0.693/slope

[2] = system: NCI-H1703 (human lung squamous cell carcinoma); assay: Cell cytotoxicity CellTiter-Glo, NCI-H1703; format: cell-based
Method: as §1

[3] = system: SU-DHL-10 cell line (human B cell lymphoma); assay: Cell cytotoxicity in SU-DHL-10 cell line (CellTiter-Glo); format: cell-based; conditions: 72 h treatment, CTG
Method: Certain Example compounds of the invention and Comparator Compound 1 were tested in the SU-DHL-10 cell line (human B cell lymphoma). Compounds which show efficacy in this assay are expected to be useful as agents for treating or preventing hyperproliferative disorders such as cancer.
Cells were seeded in 96-well microplates and treated with compounds or cisplatin (as a positive control) at 9 increasing concentrations in technical triplicate. […] On day 1, 90 μL of various cell suspensions with the number of cells ranging from 5000-8000 cells/well were seeded into wells of a 96-well plate (Corning). The number of cells to be seeded was previously determined. • 2. All 96-wells plates with cells were placed in an incubator overnight at 37° C. with 5% CO2. • 3. On day 2, cells were observed under a microscope ensuring the cells treated with vehicle control were in good condition. • 4. A dilution series of the test compounds and cisplatin were prepared at 10× the final concentrations required. 10 μL/well of 10× compound solution was added to the corresponding plates. The final volume was 100 μL/well for all the plates. Final DMSO concentration was 0.1%. • 5. On day 5 (after 72 hours of incubation), 50 μL of CTG reagent was added to each well. • 6. Contents were mixed for 5 minutes on an orbital shaker to facilitate cell lysis. • 7. The plate was allowed to incubate at room temperature for 10 minutes to stabilize luminescent signals.
Luminescence was recorded using an EnVision Multi Label Reader. Data analysis was performed using GraphPad Prism 8.0.
To calculate IC50, a concentration-response curve was generated using a nonlinear regression model with a sigmoidal concentration response. The formula for calculating the % of viable cells was shown below, and the IC50s are automatically generated by GraphPad Prism 8.0.
(LumTest article=luminescence in test article treated well; LumNone treated=luminescence in vehicle treated well; LumMedium control=luminescence in a well containing only medium and no cells; LumNone treated-LumMedium control was set as 100%)

[4] = system: MX-1 (human breast carcinoma); assay: Cell cytotoxicity CellTiter-Glo, MX-1; format: cell-based; conditions: MX1
Method: as §1

[5] = system: DU4475 (human breast carcinoma); assay: Cell cytotoxicity CellTiter-Glo, DU4475; format: cell-based; conditions: DU-4475
Method: as §1

[6] = system: RKO (human colon carcinoma); assay: Cell cytotoxicity CellTiter-Glo, RKO; format: cell-based
Method: as §1

[7] = system: CA46 (human B cell lymphoma); assay: Cell cytotoxicity CellTiter-Glo, CA46; format: cell-based
Method: as §1

mouse hepatocytes = assay: Hepatocyte metabolic stability, mouse; format: in vitro ADME
Method: as §2, §3, §4

[8] = Caco-2 cell permeability assay; format: in vitro ADME; conditions: human, Caco-2, pH 7.4, basal to apical Papp, pH 7.4, 2.5 h
Method: (§5) Certain Example compounds and Comparative Example 1 were tested for their apical to basal (AB) and basal to apical (BA) permeability in Caco-2 cells.
(§6) Cell Culture: Caco-2 cells were grown for 10 days in 96-well plates in HBSS buffer containing 10 mM HEPES. Both the apical and basal pH was buffered at pH 7.4. The apical/basal volumes were 75 μl and 250 μl respectively. The incubation time was 2.5 h at 37° C. (without shaking) under 5% CO2 & 95% relative humidity.
(§7) Cell Seeding: Cells were seeded at a density of 18750 cells/well (membrane area=0.0804 cm^2) in a 96 well plate.
(§8) AB Assay: 75 μl of cell suspension was added at a density 2.5×10^5 cells/ml to the apical wells. 40 ml media was added to the feeder tray. The plates were placed in the incubator (37° C., 5% CO2 and controlled humidity). The Caco-2 cells were grown for 10 days with a media change on every alternate day.
(§9) BA Assay: 25 μl of cell suspension was added at a density of 7.5×10^5 cells/ml to the bottom side (keeping the plate upside down) of apical wells. The plate (upside down position) was placed in the incubator (37° C., 5% CO2 and 95% Relative humidity) for 2 h. The plate was turned right side up. 75 μl media was added to the apical wells and 40 ml media to the feeder tray.
(§10) Permeablity Assay: The apical and basal wells were washed with buffer (pH 7.4) and 250 μl buffer was added to the wells of the basal plate. 75 μl of compound solution (2 μM, dissolved in water with 1% DMSO) was transferred to the apical wells (n=2). The apical plate was placed onto the basal plate. The lid was placed on to prevent evaporation. The assembly was incubated at 37° C. for 2.5 h (without shaking) under 5% CO2 and 95% relative humidity. After incubation the apical plate was separated from the basal plate. Aliquots were taken out from the acceptor and donor wells, diluted and quantified using LC-MS/MS along with initial donor samples.
(§11) Membrane Integrity Test: Solution in the apical wells was discarded by inverting the plate and soaking onto tissue paper. 250 μl buffer (pH 7.4) was added to each well of basal plate and 75 μl of Lucifer Yellow (LY; 0.1 mg/ml) in buffer (pH 7.4) to the wells of apical plate. The apical plate was placed onto the basal plate and the lid used to prevent evaporation. The assembly was incubated at 37° C. for 1 h (without shaking) under 5% CO2 and 95% relative humidity. The apical plate was separated from the basal plate. Fluorescence (Ex: 432 nm, Em: 530 nm) of aliquots (100 ul) was measured from basal wells. Fluorescence of 100 μl buffer (pH 7.4) and 100 μl LY(0.1 mg/ml) was also measured. Wells having more than 1% fluorescence intensity with respect to 0.1 mg/ml LY were considered non-integrated membrane. Such wells, if any, were not considered for permeability calculation.
(§12) Calculation: Drug was detected and quantified by LC-MS/MS. Data generated took the form of an apparent permeability (Papp) value. Papp=[Va/(AreaxTime)]×(LC-MS Area of Acceptor sample×Sample dilution factor/LC-MS Area of Initial Donor). Va=Volume of Acceptor Well (in ml)=0.25, Vd=Volume of Donor Well (in ml)=0.075, Area=Surface area of the membrane (cm2)=0.0804, Time=Time of incubation (sec)=9000 Results: The results of the assay are shown in Table 3 below.

Caco-2 cells = assay: Caco-2 cell permeability assay; format: in vitro ADME; conditions: apical to basal Papp, 2 μM, pH 7.4, 2.5 h
Method: as §5, §6, §7, §8, §9, §10, §11, §12

DOHH-2 tumor cells = assay: Subcutaneous xenograft DOHH-2 lymphoma model; format: in vivo, CB17/SCID mice; conditions: intraperitoneal dosing (Example 5: 7 or 20 mg/kg; Example 12: 0.7 or 2 mg/kg), QD cycles
Method: The in vivo efficacy of certain Example compounds was assessed in a subcutaneous xenograft DOHH-2 Lymphoma Model using 10 female 6-8 week old CB17/SCID Mice. Each mouse was inoculated subcutaneously at the right front region with DOHH-2 tumor cells (5×10^6) in 0.1 ml of PBS mixed with matrigel (1:1 PBS:matrigel) for tumor development. The test compound administration started once the mean tumor size reached approximately 100-150 mm^3.
Compounds were administered either IP (vehicle 10 mM sodium phosphate+0.2% Tween-80 (pH7.4) or orally (vehicle 15 Na2HPO4 buffer (10 mM) (pH 4.5)+0.2% tween 80). Tumor volumes were measured in two dimensions using a caliper, and the volume expressed in mm^3 using the formula: V=(L×W×W)/2, where V is tumor volume, L is tumor length (the longest tumor dimension) and W is tumor width (the longest tumor dimension perpendicular to L).
Mice were dosed with Example 21 orally (12.5 or 25 mg/kg) once a day for 9 consecutive days (FIG. 3). Example 5 was dosed intraperitoneally (7 or 20 mg/kg) in a cycle consisting of administration QD for three days followed by a three day no-dosing period followed by QD dosing for a further three days (FIG. 4). Example 12 was dosed intraperitoneally (0.7 or 2 mg/kg) in a cycle consisting of administration QD for three days followed by a three day no-dosing period followed by QD dosing for a further three days (FIG. 5). In a separate study Example 12 was dosed at […] in a cycle consisting of administration QD for two days followed by either four or six day no-dosing period, and this cycle was repeated three times (FIG. 6).

| Structure (SMILES) | IC50 [1] | rHeps t^1/2 (rat hepatocytes) | IC50 [2] | IC50 [3] | IC50 [4] | IC50 [5] | IC50 [6] | IC50 [7] | mHeps t^1/2 (mouse hepatocytes) | Papp B→A at 2.5 h, 2 μM [8] | Caco-2 A-B (Caco-2 cells) | IC50 ([3]; Homo sapiens, SU-DHL10, 72 h) | tumour volume compared to vehicle (DOHH-2 tumor cells) |
| --- | --- | --- | --- | --- | --- | --- | --- | --- | --- | --- | --- | --- | --- |
| CNCc1cnc2ccc(-c3ccc(F)c(F)c3OCCc3c(C(O)C(C)(C)C)nn(C)c3C)cn12 (single isomer, unassigned) [Example 14, 1-(4-(2-(2,3-difluoro-6-(3-((methylamino)methyl)imidazo[1,2-a]pyridin-6-yl)phenoxy)ethyl)-1,5-dimethyl-1H-pyrazol-3-yl)-2,2-dimethylpropan-1-ol] | 1 nM | 18 min | 4 nM | 0.4 nM | 1.4 nM | 20 nM | 2 nM | 2 nM | 26.73 min | 5.14 ×10⁻⁶ cm/s | 0.215 ×10⁻⁶ cm/s | – | – |
| CNCc1cnc2ccc(-c3ccc(F)cc3OCCc3c(C(C)O)nn(C)c3C)cn12 (stereo not drawn) [Example 1, 1-{4-[2-(5-fluoro-2-{3-[(methylamino)methyl]imidazo[1,2-a]pyridin-6-yl}phenoxy)ethyl]-1,5-dimethyl-1H-pyrazol-3-yl}ethan-1-ol] | – | 68 min | – | – | – | – | – | – | – | 14.1 ×10⁻⁶ cm/s | 0.1 ×10⁻⁶ cm/s | 15.3 nM | – |
| CNCc1cnc2ccc(-c3ccc(F)c(F)c3OCCc3c(C(C)O)nn(C)c3C)cn12 (stereo not drawn) [Example 5, 1-{4-[2-(2,3-difluoro-6-{3-[(methylamino)methyl]imidazo[1,2-a]pyridin-6-yl}phenoxy)ethyl]-1,5-dimethyl-1H-pyrazol-3-yl}ethan-1-ol] | – | – | – | – | – | – | – | – | 51.17 min | 16 ×10⁻⁶ cm/s | 0.195 ×10⁻⁶ cm/s | 5.9 nM | significant reduction in tumour volume or reduced growth in tumour volume |
| Cc1c(CCOc2c(-c3ccc4ncc(CN(C)C)n4c3)ccc(F)c2F)c(C(C)O)nn1C (stereo not drawn) [Example 6, 1-(4-(2-(6-(3-((dimethylamino)methyl)imidazo[1,2-a]pyridin-6-yl)-2,3-difluorophenoxy)ethyl)-1,5-dimethyl-1H-pyrazol-3-yl)ethan-1-ol] | – | 15 min | – | – | – | – | – | – | – | 22 ×10⁻⁶ cm/s | 3.04 ×10⁻⁶ cm/s | 5 nM | – |

— patent US12599676B2, “Cytotoxic imidazo[1,2-A]pyridine compounds and their use in therapy” (MyricX Pharma Limited, priority 2022, dated 2026)
